How the values were obtained:
[1] = test system: MDA-MB-361 human breast cancer xenografts; assay: Antitumor activity in MDA-MB-361 human breast cancer xenografts, various doses and schedules; format: in vivo, female athymic nude mice; settings: PO
Method: Objectives of this study: to determine the in vivo antitumor activity of compound A at various doses and schedules in the MDA-MB-361 human breast cancer xenografts after oral (PO) administration in female nude mice.
Compound A was prepared according to methods disclosed in WO 2011/022439 and WO 2013/071272 and stored at approximately 25° C., shielded from light. The control used in this study was 100% PEG400.
Low passage MDA-MB-361 cells were grown in Dulbecco's Modified Eagle's Medium (DMEM) media supplemented with 20% fetal bovine serum (FBS) and 1× penicillin/streptomycin (Invitrogen [Carlsbad, Calif., USA]) until approximately 80% confluency was reached. […]
Four-five week old female athymic nude mice were inoculated SC in flank (cell suspension in serum free DMEM and 50% Matrigel) with 10.0×10^6 MDA-MB-361 cells. Tumor growth was monitored with vernier calipers. The mean TV (MTV) was calculated using the formula V=W^2×L/2.
When tumors reached a mean tumor volume (MTV) of approximately 280 mm^3, mice (n=5/group) were treated with vehicle (PEG400) or compound A (60, 70, 140, or 210 mg/kg) administered concurrently via oral gavage over a 28 day treatment period on the schedules indicated below in Table 2. The percentage of tumor growth inhibition (TGI) and percent body weight (BW) change were determined on Day 28. […]

[2] = Phase 1 clinical study, safety and tolerability (MTD, AEs grade 3 or higher) in patients with advanced solid malignancies; format: in vivo
From the text: A phase 1 clinical study was initiated to evaluate the safety, tolerability, PK, pharmacodynamics; to determine the maximum tolerated dose (MTD) in each of 3 schedules described below; and to evaluate antitumor activity in patients with advanced solid malignancies.
Inclusion Criteria • Subjects have had their PIK3CA gene mutation status assessed prior to enrolling into the study • Subjects must have documented disease progression prior to enrolling into the study • locally advanced or metastatic solid tumors with the exception of primary brain tumor, and have failed or are not eligible for standard of care therapy. • Age ≧18 years, including males and females; • ECOG performance status (PS) 0-1; • Adequate organ function; • Male subjects must be surgically sterile or must agree to use physician-approved contraception during the study and for 30 days following the last study drug administration; • Ability to swallow oral medications; • Ability to understand and willingness to sign informed consent prior to initiation of any study procedures; • For women of child-bearing potential, negative serum pregnancy test within 14 days prior to the first study drug administration and use of physician-approved method of birth control from 30 days prior to the first study drug administration to 30 days following the last study drug administration
35 patients were enrolled into the dose escalation phase of the study, which is designed to determine the MTD of compound A when given orally on continuous (daily) or intermittent schedules. The MTD for the QD dosing schedule was determined to be 100 mg.
Other than MTD, the other primary outcome measures is the tolerability profile of compound A or the number of adverse events (AE) from the first dose of study drug through 30 days after the last dose of study drug. Plasma levels of compound A is one of the secondary outcome measures.

[3] = test system: T47D (PIK3CA mutant, ER/PR+) human breast cancer xenografts; assay: Antitumor activity alone and in combination with fulvestrant in T47-D xenografts; format: in vivo, NOD-SCID mice; settings: Compound A 70 mg/kg PO QD x 3/wk x 3, Fulvestrant 100 mg/kg SC QW x 3; for TGI (tumor growth inhibition): Day 21 post treatment initiation; for ΔAUC (change in area under the tumor volume-versus-time curves): versus vehicle, 21 day treatment
From the text: The control used in this study was 100% PEG400+0.9% Saline. Fulvestrant was formulated in 0.9% saline.
Prior to injection, the cells were detached with Trypsin (Invitrogen), washed twice with phosphate buffered saline (PBS), and resuspended in RPMI (Roswell Park Memorial Institute) media (Invitrogen,) without supplements. Cells were resuspended to a final concentration of 10.0×10^7 cells/ml in DPBS and mixed with 50% Matrigel (BD Biosciences) at 1 to 1 volume. T47-D cells (10.0×10^6 cells/animal in 02-mL injection volume) were implanted S.C. into the right flank of NOD-SCID mice (Harlain Laboratories).
Four-six week old female NOD-SCID mice were inoculated SC in flank (cell suspension in DPBS and 50% Matrigel) with 10.0×10^6 T47-D cells. Tumor growth was monitored with vernier calipers. The mean TV (MTV) was calculated using the formula V=W2×L/2.
The percentage of tumor growth inhibition (TGI) and percent body weight (BW) change were determined on Day 21 and provided in Table 6. Statistical comparisons of tumor growth between the treatment and vehicle groups were conducted using a linear mixed effects regression analysis on the change in area under the tumor volume (TV)-versus—time curves (ΔAUC) values. All p values less than 0.05 were considered significant.
A combination score calculation was used to address the question of whether the effects of the combination treatments were synergistic, additive, subadditive, or antagonistic relative to the individual treatments. The effect was considered synergistic if the synergy score was less than 0, and additive if the synergy score wasn't statistically different from 0.

| SMILES | efficacy in reducing tumor size, intermittent regimen versus daily administration ([1]; 28 day treatment, total amount administered comparable in daily and intermittent schedules) | relationship between efficacy (tumor growth inhibition, TGI) and exposure (AUC) between dosing schedules ([1]; single agent, FIG. 3) | maximum tolerated dose (MTD) ([2]; QD (continuous daily) oral dosing schedule) [mg] | Abdominal pain, AEs grade 3 or higher ([2]; both, human, in vivo) | Anaemia, AEs grade 3 or higher ([2]; both, human, in vivo) | Chills, AEs grade 3 or higher ([2]; both, human, in vivo) | Decreased appetite, AEs grade 3 or higher ([2]; both, human, in vivo) | Diarrhoea, AEs grade 3 or higher ([2]; both, human, in vivo) | Drug-induced liver injury, AEs grade 3 or higher ([2]; both, human, in vivo) | Hyperglycaemia, AEs grade 3 or higher ([2]; both, human, in vivo) | Nausea, AEs grade 3 or higher ([2]; both, human, in vivo) | Oxygen saturation, AEs grade 3 or higher ([2]; both, human, in vivo) | Transaminases incr'd, AEs grade 3 or higher ([2]; both, human, in vivo) | TGI (tumor growth inhibition) [3] [%] | TGI (tumor growth inhibition) ([3]; listed as compound A) [%] | ΔAUC (change in area under the tumor volume-versus-time curves) [3] |
| --- | --- | --- | --- | --- | --- | --- | --- | --- | --- | --- | --- | --- | --- | --- | --- | --- |
| Nc1nc2cc(-c3ccc4ncc(C(=O)N5CCOCC5)n4c3)ccc2o1 [Compound A, (6-(2-aminobenzo[d]oxazol-5-yl)imidazo[1,2-a]pyridin-3-yl)(morpholino)methanone] | as efficacious in reducing tumor size as daily administration | AUC-driven | 100 | 1 (4) n (%) | 1 (5) n (%) | 1 (6) n (%) | 1 (6) n (%) | 1 (6) n (%) | 1 (4) n (%) | 2 n (%) | 1 (6) n (%) | 1 (6) n (%) | 2 (8) n (%) | 52.60 | 52.6 | 61.2 |
| C[C@]12CC[C@@H]3c4ccc(O)cc4C[C@@H](CCCCCCCCC[S+]([O-])CCCC(F)(F)C(F)(F)F)[C@H]3[C@@H]1CC[C@@H]2O (stereo partly drawn) [Fulvestrant, (7α,17β)-7-{9-[(4,4,5,5,5-pentafluoropentyl)sulfinyl]nonyl}estra-1,3,5(10)-triene-3,17-diol, reference compound] | – | – | – | – | – | – | – | – | – | – | – | – | – | 66.70 | – | 108.4 |
